Test system: Vero cell
Assay: Cytotoxicity test on Vero cell (MTT)
Conditions: 72 hours

Structure (SMILES): COc1ccc([C@H]2OCC3C2CO[C@H]3c2ccc(OC)c(OC(=O)C(C)c3ccc(CC(C)C)cc3)c2)cc1OC (some centres unmarked) [Phillygenin ibuprofen ester, phillygenin ibuprofen ester]
- Median toxic concentration (TC50): 485 µg/mL
- maximal non-toxic concentration (TC0): 0.109 g/L

Reference: patent US9963461B2, “Phillygenin ibuprofen ester, preparation method therefor, and application thereof” (priority 2014, dated 2018)
